Key:
[1] = test system: Phospho-p44/42 MAPK (Erk1/2) (T202/Y204); test: Inhibition of kinase phosphorylation by Western Blot in MOLM-13; format: cell-based; details: MOLM-13 cells, 4 hour-incubation; read-out: pERK MOLM-13 IC50
Method: (§1) Inhibition of kinase phosphorylation assay was performed by Western Blot using MV-4-11 and MOLM13 cell lines. Cells were plated in 24 well plates at 1 million cells per well and then treated with compounds at different concentrations, starting at 100 nM, 1:4 titration with DMSO as control. After 4 hour-incubation, cells were washed once with ice-cold PBS, and lysed in RIPA lysis buffer with protease and phosphatase inhibitors. The cell lysates were then sonicated and spun down, and 40 μg of proteins were separated by sodium dodecyl sulfate electrophoresis on a 4 to 12% Bis-Tris polyacrylamide gel and transferred onto nitrocellulose membranes using Bio-Rad Trans-Blot Turbo Transfer System (Bio-Rad). Blocking was performed using 3% BSA or 5% Non-fat dry milk (Fisher Scientific) in TBST (Tris-buffered saline containing 0.05% of Tween 20) (Bio-Rad Laboratories, Inc.). The membranes were incubated overnight with anti-phospho-FLT3 (Y589/Y591) (CST #60413), anti-phospho-STAT5 (Y694) (CST #4322), anti-Phospho-p44/42 MAPK (Erk1/2) (T202/Y204) (CST #9101), anti-Phospho-S6 Ribosomal Protein (S235/236) (CST #4858) and anti-β-Actin (CST #8457) each diluted 1000 times in 3% BSA in TBST. Membranes were washed with TBST and then incubated at room temperature for 1 hour with HRP-labeled anti-rabbit IgG polyclonal antibody (CST #7074) diluted 1000 times in 3% BSA. After TBST washing, blots were developed with a chemiluminescence system (SuperSignal West Femto Maximum Sensitivity Substrate, Pierce #34095). Luminescence was detected by LI-COR Odyssey M imaging system and luminescence intensity were quantified using Empiria Studio 2.2 software. Data was analyzed using GraphPad Prism 9 (GraphPad Software, San Diego, CA) to obtain IC50 values.

[2] = test system: BCLxS/xL; test: Alternative splicing ratio by qPCR in MV-4-11; format: cell-based; details: DMSO = 1
Method: Alternative splicing ratio of RNA transcripts was measured by qPCR in MV-4-11 and MOLM-13 cell lines. Cells were plated in 24 well plates at 1 million cells per well and then treated with compounds at different concentrations, with DMSO only as control. […] Total RNA was extracted using the RNA Purification Kit (Invitrogen). 2 μg of RNA was used for cDNA synthesis using cDNA synthesis kit (ThermoFisher) and 20 ng of cDNA was used for qPCR using PROFLEX 96-Well PCR System (ThermoFisher).
• BCLxS/xL (SYBR Green, IDT)

[3] = molecular target: FLT3 (R834Q) (Homo sapiens (Human), UniProt P36888, R834Q); test: KINOMEscan binding assay (Eurofins DiscoveRx)
Method: (§2) For most kinases, kinase-tagged T7 phage strains were prepared in an E. coli host derived from the BL21 strain. E. coli were grown to log-phase and infected with T7 phage and incubated with shaking at 32° C. until lysis. The lysates were centrifuged and filtered to remove cell debris. The remaining kinases were produced in HEK-293 cells and subsequently tagged with DNA for qPCR detection. Streptavidin-coated magnetic beads were treated with biotinylated small molecule ligands for 30 minutes at room temperature to generate affinity resins for kinase assays. The liganded beads were blocked with excess biotin and washed with blocking buffer (SeaBlock (Pierce), 1% BSA, 0.05% Tween 20, 1 mM DTT) to remove unbound ligand and to reduce non-specific binding. […] Test compounds were prepared as 111× stocks in 100% DMSO. Kds were determined using an 11-point 3-fold compound dilution series with three DMSO control points. […] The compounds were then diluted directly into the assays such that the final concentration of DMSO was 0.9%. All reactions performed in polypropylene 384-well plate. Each was a final volume of 0.02 ml. […] The kinase concentration in the eluates was measured by qPCR. Binding constants (Kds) were calculated with a standard dose-response curve using a non-linear least square fit with the Levenberg-Marquardt algorithm.

[4] = molecular target: FLT3 (Homo sapiens (Human), UniProt P36888); test: KINOMEscan binding assay (Eurofins DiscoveRx)
Method: as §2

[5] = molecular target: FLT3 (ITD, F691L); test: KINOMEscan binding assay (Eurofins DiscoveRx)
Method: as §2

[6] = molecular target: FLT3 (D835V) (Homo sapiens (Human), UniProt P36888, D835V); test: KINOMEscan binding assay (Eurofins DiscoveRx)
Method: as §2

[7] = molecular target: FLT3 (ITD); test: KINOMEscan binding assay (Eurofins DiscoveRx)
Method: as §2

[8] = molecular target: FLT3 (K663Q) (Homo sapiens (Human), UniProt P36888, K663Q); test: KINOMEscan binding assay (Eurofins DiscoveRx)
Method: as §2

[9] = molecular target: FLT3 (N841I) (Homo sapiens (Human), UniProt P36888, N841I); test: KINOMEscan binding assay (Eurofins DiscoveRx)
Method: as §2

[10] = molecular target: FLT3 (D835H) (Homo sapiens (Human), UniProt P36888, D835H); test: KINOMEscan binding assay (Eurofins DiscoveRx)
Method: as §2

[11] = molecular target: FLT3 (ITD, D835V); test: KINOMEscan binding assay (Eurofins DiscoveRx)
Method: as §2

[12] = molecular target: FLT3 (D835Y) (Homo sapiens (Human), UniProt P36888, D835Y); test: KINOMEscan binding assay (Eurofins DiscoveRx)
Method: as §2

[13] = molecular target: FLT3-autoinhibited (Homo sapiens (Human), UniProt P36888); test: KINOMEscan binding assay (Eurofins DiscoveRx)
Method: as §2

[14] = test system: Phospho-S6 Ribosomal Protein (S235/236); test: Inhibition of kinase phosphorylation by Western Blot in MV-4-11; format: cell-based; details: MV-4-11 cells, 4 hour-incubation; read-out: pS6 MV-4-11 IC50
Method: as §1

[15] = test system: phospho-STAT5 (Y694); test: as above; format: cell-based; details: MV-4-11 cells, 4 hour-incubation; read-out: pSTAT5 MV-4-11 IC50
Method: as §1

[16] = test system: Phospho-p44/42 MAPK (Erk1/2) (T202/Y204); test: as above; format: cell-based; details: MV-4-11 cells, 4 hour-incubation; read-out: pERK MV-4-11 IC50
Method: as §1

IC50 [1]: 4.11 nM
Kd [3]: 0.89 nM
Kd [4]: 0.18 nM
Kd [5]: 0.23 nM
Kd [6]: 0.062 nM
Kd [7]: 6.3 nM
Kd [8]: 16 nM
Kd [9]: 2.2 nM
Kd [10]: 67 nM
Kd [11]: 0.058 nM
Kd [12]: 4.1 nM
Kd [13]: 9.1 nM
IC50 [14]: 0.41 nM
IC50 [15]: 0.6 nM
IC50 [16]: 2.85 nM
SMILES: CCc1nn(C)c2c1/C=C/c1n[nH]c3ccc(cc13)-c1cnn(C)c1OCCN(C)C2=O [Ex. 6, (17E)-16-ethyl-8,12,14-trimethyl-2,11,12,14-tetrahydro-8H-3,5-ethenotripyrazolo[3,4-f:3′,4′-j:4″,3″-n][1,4]oxazacyclopentadecin-13(10H)-one]
Alternative Splicing Ratio BCL-xS/xL 6-hour ([2]; MV-4-11, 2 nM): 0.7
Alternative Splicing Ratio BCL-xS/xL 24-hour ([2]; MV-4-11, 2 nM): 0.6
Alternative Splicing Ratio BCL-xS/xL 6-hour ([2]; MV-4-11, 10 nM): 1.1
Alternative Splicing Ratio BCL-xS/xL 24-hour ([2]; MV-4-11, 10 nM): 0.9
Alternative Splicing Ratio BCL-xS/xL 6-hour ([2]; MV-4-11, 50 nM): 1.4
Alternative Splicing Ratio BCL-xS/xL 24-hour ([2]; MV-4-11, 50 nM): 1.3
Alternative Splicing Ratio BCL-xS/xL 6-hour ([2]; MV-4-11, 250 nM): 3.7
Alternative Splicing Ratio BCL-xS/xL 24-hour ([2]; MV-4-11, 250 nM): 7.3

Source: US20260070924A1, “INDAZOLE MACROCYCLES AND THEIR USE” (BLOSSOMHILL THERAPEUTICS, INC., priority 2022, published 2026)
